We go through nine molecules from PubChem BioAssay (NCI).

Some test systems named below: NCI/ADR-RES ovarian; NCI-H226 lung; IGROV1 ovarian; NCI-H460 lung; SK-MEL-2 melanoma; KM12 colon; HS 578T breast; SK-MEL-28 melanoma; A549 NSCLC; MDA-MB-231 breast.
Holding throughout (assay): NCI tumour cell line growth inhibition, 48 h

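Growth conditions: 96-well plates. Treatment: test compound, 48 hours, 5 concentrations. Analysis: linear interpolation between bracketing concentrations; unreached endpoints set to highest concentration. At the GI50, growth is halved. The concentration for full growth arrest is given as TGI.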

In the case of `N/C(=N/O)NOCCC(N)C(=O)O` (stereo not given), the GI50 with NCI/ADR-RES ovarian, with NCI-H226 lung, in the experiment on IGROV1 ovarian, in the experiment with NCI-H460 lung, in the experiment with SK-MEL-2 melanoma and in the experiment on KM12 colon was more than 100 µM each time. Moreover, the GI50 in the experiment with HS 578T breast, in the experiment on SK-MEL-28 melanoma, in the experiment on A549 NSCLC and in the experiment with MDA-MB-231 breast was more than 100 µM each time. The TGI in the experiment with NCI/ADR-RES ovarian, in the experiment on NCI-H226 lung, with IGROV1 ovarian, with NCI-H460 lung, in the experiment on SK-MEL-2 melanoma and in the experiment with KM12 colon was more than 100 µM each time. The TGI with HS 578T breast, in the experiment with SK-MEL-28 melanoma, in the experiment with A549 NSCLC and in the experiment on MDA-MB-231 breast was more than 100 µM throughout.

Consider `O=C(Nc1n[nH]c2cc(-c3ccc(F)cc3)ccc12)C1CC1`, for which the GI50 in the experiment on NCI/ADR-RES ovarian is 5.27 µM; with NCI-H226 lung it was 9.29 µM; in the experiment with IGROV1 ovarian, more than 21.8 µM; in the experiment with NCI-H460 lung, 7.47 µM; in the experiment on SK-MEL-2 melanoma it was 7.16 µM; in the experiment with KM12 colon it was 4.11 µM. Also, the GI50 is 10.7 µM in the experiment with HS 578T breast, 12.3 µM in the experiment with SK-MEL-28 melanoma, 10.5 µM with A549 NSCLC and 12.6 µM in the experiment on MDA-MB-231 breast. Moreover, the TGI in the experiment on NCI/ADR-RES ovarian was 22.6 µM; in the experiment with NCI-H226 lung it was more than 25 µM; in the experiment with IGROV1 ovarian it was more than 25 µM; in the experiment with NCI-H460 lung, more than 25 µM; with SK-MEL-2 melanoma it was more than 21.9 µM; with KM12 colon it was more than 25 µM. Further, the TGI in the experiment with HS 578T breast, with SK-MEL-28 melanoma, with A549 NSCLC and with MDA-MB-231 breast was more than 25 µM each time.

For the molecule `NS(=O)(=O)c1ccc(NC(=O)Nc2cccc3ccccc23)cc1`, the TGI is more than 100 µM in the experiment on NCI/ADR-RES ovarian; 52.8 µM in the experiment with NCI-H226 lung; more than 100 µM in the experiment on IGROV1 ovarian; more than 100 µM in the experiment on NCI-H460 lung; more than 100 µM in the experiment on SK-MEL-2 melanoma; more than 100 µM in the experiment with KM12 colon. In addition, the TGI in the experiment on HS 578T breast is more than 100 µM; in the experiment with SK-MEL-28 melanoma it was more than 100 µM; in the experiment with A549 NSCLC, more than 100 µM; in the experiment on MDA-MB-231 breast it was 41.1 µM.

As to `CC#CC#C/C=C1/C=CC2(CCCCO2)O1` (stereo not given), the TGI in the experiment with NCI/ADR-RES ovarian, in the experiment on NCI-H226 lung, in the experiment with IGROV1 ovarian, in the experiment with NCI-H460 lung, in the experiment with SK-MEL-2 melanoma and in the experiment with KM12 colon was more than 100 µM each time. The TGI in the experiment with HS 578T breast, in the experiment on SK-MEL-28 melanoma, with A549 NSCLC and in the experiment on MDA-MB-231 breast was more than 100 µM throughout.

For the molecule `COc1cc(-c2cc(-c3ccc(Nc4nc(Nc5ccc(Cl)cc5)nc(Nc5ccc(Cl)cc5)n4)cc3)no2)cc(OC)c1OC`, the GI50 in the experiment with NCI/ADR-RES ovarian is 11.3 µM; in the experiment with NCI-H226 lung, 27 µM; in the experiment with IGROV1 ovarian, 3.22 µM; with NCI-H460 lung, 6.79 µM; with SK-MEL-2 melanoma it was 5.04 µM; in the experiment with KM12 colon, 14.2 µM. The GI50 with HS 578T breast was 1.71 µM; in the experiment on SK-MEL-28 melanoma, 14.4 µM; with A549 NSCLC, 13.5 µM; in the experiment on MDA-MB-231 breast, 5.15 µM. For the same molecule, the TGI was more than 100 µM with NCI/ADR-RES ovarian; more than 100 µM with NCI-H226 lung; more than 100 µM in the experiment on IGROV1 ovarian; 46.4 µM in the experiment on NCI-H460 lung; more than 100 µM with SK-MEL-2 melanoma; more than 100 µM with KM12 colon. Also, the TGI in the experiment on HS 578T breast, in the experiment on SK-MEL-28 melanoma, with A549 NSCLC and in the experiment with MDA-MB-231 breast was more than 100 µM throughout.

With `C#Cc1cccc(NC(=O)C2CCCCN2C(=O)CCl)c1` (stereo not given), the GI50 in the experiment on NCI/ADR-RES ovarian was 16.5 µM; with NCI-H226 lung it was 52.1 µM; in the experiment on IGROV1 ovarian, 9.72 µM; in the experiment with NCI-H460 lung, 23.9 µM; in the experiment on SK-MEL-2 melanoma, 23.9 µM; with KM12 colon it was 37.1 µM. Besides, the GI50 in the experiment with HS 578T breast was 18.4 µM; with SK-MEL-28 melanoma, 54.1 µM; in the experiment on A549 NSCLC, more than 82.5 µM; in the experiment with MDA-MB-231 breast it was 13.1 µM. The TGI is 47.3 µM in the experiment on NCI/ADR-RES ovarian; more than 82.5 µM with NCI-H226 lung; 27.1 µM with IGROV1 ovarian; more than 82.5 µM with NCI-H460 lung; more than 82.5 µM in the experiment on SK-MEL-2 melanoma; more than 82.5 µM in the experiment with KM12 colon. The TGI in the experiment on HS 578T breast was 76.4 µM; with SK-MEL-28 melanoma, more than 82.5 µM; in the experiment on A549 NSCLC, more than 82.5 µM; in the experiment on MDA-MB-231 breast, 28.7 µM.

With `COc1ccc(C2CC(=O)Nc3c2c(C)nn3-c2nc3ccccc3[nH]2)cc1OC` (stereo not given), the GI50 in the experiment with NCI/ADR-RES ovarian is 12 µM; in the experiment with NCI-H226 lung it was 3.31 µM; in the experiment on IGROV1 ovarian it was 4.67 µM; with NCI-H460 lung, 3.46 µM; in the experiment on SK-MEL-2 melanoma it was 4.85 µM; in the experiment on KM12 colon, 3.7 µM. Moreover, the GI50 is 4.49 µM in the experiment on HS 578T breast, 4.9 µM in the experiment on SK-MEL-28 melanoma, 3.82 µM in the experiment with A549 NSCLC and 4.39 µM in the experiment on MDA-MB-231 breast. Further, the TGI in the experiment with NCI/ADR-RES ovarian was more than 100 µM; in the experiment on NCI-H226 lung, 14.1 µM; in the experiment with IGROV1 ovarian it was more than 93.3 µM; with NCI-H460 lung, 16.2 µM; in the experiment with SK-MEL-2 melanoma it was 21.9 µM; in the experiment with KM12 colon, 14.1 µM. In addition, the TGI was more than 100 µM in the experiment on HS 578T breast, more than 100 µM in the experiment with SK-MEL-28 melanoma, 17.8 µM in the experiment on A549 NSCLC and 21 µM with MDA-MB-231 breast.

For the molecule `Nc1cc2c3ccccc3ccc2c2ccccc12`, the GI50 in the experiment on NCI/ADR-RES ovarian is more than 93.7 µM; in the experiment with NCI-H226 lung, more than 61.4 µM; in the experiment with IGROV1 ovarian, more than 100 µM; with NCI-H460 lung, 7.63 µM; in the experiment on SK-MEL-2 melanoma it was more than 100 µM; in the experiment on KM12 colon, more than 100 µM. Further, the GI50 in the experiment on HS 578T breast is more than 100 µM; in the experiment on SK-MEL-28 melanoma it was more than 100 µM; in the experiment with A549 NSCLC, 23.9 µM; with MDA-MB-231 breast, 7.36 µM. Besides, the TGI in the experiment on NCI/ADR-RES ovarian, in the experiment on NCI-H226 lung, with IGROV1 ovarian, in the experiment on NCI-H460 lung, in the experiment with SK-MEL-2 melanoma and with KM12 colon was more than 100 µM each time. In addition, the TGI in the experiment on HS 578T breast, in the experiment with SK-MEL-28 melanoma, in the experiment on A549 NSCLC and in the experiment with MDA-MB-231 breast was more than 100 µM throughout.

Turning to `O=C(Nc1ccc(-c2cn3ccccc3n2)cc1)c1cc(Br)ccc1O`, the TGI with NCI/ADR-RES ovarian, in the experiment on NCI-H226 lung, with IGROV1 ovarian, with NCI-H460 lung, with SK-MEL-2 melanoma and in the experiment with KM12 colon was more than 100 µM throughout. The TGI in the experiment with HS 578T breast, in the experiment on SK-MEL-28 melanoma, in the experiment with A549 NSCLC and with MDA-MB-231 breast was more than 100 µM throughout.
